Results taken from patent US9149038B2, “4-amino-6-(heterocyclic)picolinates and 6-amino-2-(heterocyclic)pyrimidine-4-carboxylates and their use as herbicides” (Dow AgroSciences LLC, priority 2013, dated 2015).
Read-outs that look alike come from different tables or passages of the source.

Key:
[1] = test system: Key Broadleaf Weed and Crop Species; experiment: Post-Emergent Test II: postemergent herbicidal activity, visual rating after 14 d (Table 7); type: in vivo; details: post-emergence, 336 h; for pest or weed control at 35 g/ha: 35 g ai/ha; for pest or weed control at 70 g/ha: 70 g ai/ha; for pest or weed control at 140 g/ha: 140 g ai/ha
How it was run: (§1)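 Visual 0-100% injury score (0 no injury, 100 complete kill) at 14 d post-spray, relative to untreated plants. Seedlings at 1st-2nd true leaf stage; track sprayer at 187 L/ha, highest rate plus ½×, ¼×, ⅛×, 1/16× serial dilutions. Subirrigated after treatment.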

[2] = test system: Key Grass and Sedge Weeds as well as Grass Crops; experiment: Post-Emergent Test II: postemergent herbicidal activity, visual rating after 14 d (Table 8); type: in vivo; details: post-emergence, 336 h; for pest or weed control at 35 g/ha: 35 g ai/ha; for pest or weed control at 70 g/ha: 70 g ai/ha; for pest or weed control at 140 g/ha: 140 g ai/ha
How it was run: as §1

[3] = ABUTH: velvetleaf (Abutilon theophrasti), read-out: Visual Growth Reduction (%) 14 Days After Application ABUTH
[4] = AMARE: redroot pigweed (Amaranthus retroflexus), read-out: Visual Growth Reduction (%) 14 Days After Application AMARE
[5] = BRSNN: oilseed rape, canola (Brassica napus), read-out: Visual Growth Reduction (%) 14 Days After Application BRSNN
[6] = CHEAL: lambsquarters (Chenopodium album), read-out: Visual Growth Reduction (%) 14 Days After Application CHEAL
[7] = EPHHL: wild poinsettia (Euphorbia heterophylla), read-out: Visual Growth Reduction (%) 14 Days After Application EPHHL
[8] = HELAN: sunflower (Helianthus annuus), read-out: Visual Growth Reduction (%) 14 Days After Application HELAN
[9] = barnyardgrass (Echinochloa crus-galli), read-out: Visual Growth Reduction (%) 14 Days After Application, ECHCG
[10] = giant foxtail (Setaria faberi), read-out: Visual Growth Reduction (%) 14 Days After Application, SETFA
[11] = maize, corn (Zea mays), read-out: Visual Growth Reduction (%) 14 Days After Application, ZEAMX
[12] = rice (Oryza sativa), read-out: Visual Growth Reduction (%) 14 Days After Application, ORYSA
[13] = wheat, spring (Triticum aestivum), read-out: Visual Growth Reduction (%) 14 Days After Application, TRZAS
[14] = yellow nutsedge (Cyperus esculentus), read-out: Visual Growth Reduction (%) 14 Days After Application, CYPES

COC(=O)c1nc(-c2ccc3c(c2)SCO3)c(F)c(N)c1Cl [Compound 105]
95 to 100%: pest or weed control at 140 g/ha [1, 8]
45 to 59%: pest or weed control at 140 g/ha [1, 4] | pest or weed control at 35 g/ha [2, 9]
30 to 44%: pest or weed control at 70 g/ha [1, 5] | pest or weed control at 35 g/ha [1, 6] | pest or weed control at 70 g/ha [1, 6] | pest or weed control at 140 g/ha [2, 10]
75 to 84%: pest or weed control at 70 g/ha [1, 7] | pest or weed control at 140 g/ha [2, 9]
0 to 29%: pest or weed control at 35 g/ha [1, 3] | pest or weed control at 70 g/ha [1, 3] | pest or weed control at 140 g/ha [1, 3] | pest or weed control at 35 g/ha [1, 4] | pest or weed control at 70 g/ha [1, 4] | pest or weed control at 35 g/ha [1, 5] | pest or weed control at 35 g/ha [2, 10] | pest or weed control at 70 g/ha [2, 10] | pest or weed control at 35 g/ha [2, 11] | pest or weed control at 70 g/ha [2, 11] | pest or weed control at 140 g/ha [2, 11] | pest or weed control at 35 g/ha [2, 12] | pest or weed control at 70 g/ha [2, 12] | pest or weed control at 140 g/ha [2, 12] | pest or weed control at 35 g/ha [2, 13] | pest or weed control at 70 g/ha [2, 13] | pest or weed control at 140 g/ha [2, 13] | pest or weed control at 35 g/ha [2, 14] | pest or weed control at 70 g/ha [2, 14] | pest or weed control at 140 g/ha [2, 14]
60 to 74%: pest or weed control at 140 g/ha [1, 5] | pest or weed control at 140 g/ha [1, 6] | pest or weed control at 35 g/ha [1, 7] | pest or weed control at 70 g/ha [2, 9]
85 to 94%: pest or weed control at 140 g/ha [1, 7] | pest or weed control at 35 g/ha [1, 8] | pest or weed control at 70 g/ha [1, 8]
